Source: US20220331322A1, “COMPOUND FOR INHIBITING CELL DEATH” (Christian-Albrechts-Universität zu Kiel, priority 2019, published 2022)

How the values were obtained:
TNF-α-induced complex I = experiment: Immunoprecipitation of TNF-α-induced complex I after TSZ, RIPK1 western blot; format: cell-based, human; settings: U937, TSZ (100 ng/ml Fc-TNF-α + 1 μM SM164 + 25 μM zVAD), 1 mM primidone
Description: It was tested whether primidone interferes with binding of TNF-α to its corresponding receptor TNFR1. To induce cell death, human U937 cells were treated in the absence (vehicle) or presence of 1 mM primidone with 100 ng/ml Fc-tagged TNF-α+1 μM SMAC mimetic SM164+25 μM zVAD (TSZ) for different time periods, followed by immunopurification of the immunoprecipitated TNF-α-induced complex I using μMACS™ protein A/G microbeads, and western blot analysis using a specific RIPK1 antibody.

[1] = TNF-α-induced SIRS mouse model; format: in vivo; settings: C57BL/6 mice, 10 mg/kg i.p. 15 min before 1 mg/kg murine TNF-α i.v.
Description: Hypothermia and morbidity induced by a high dose of TNF-α is considered in the literature to be a model for systemic inflammatory response syndrome (SIRS) (Moerke C, et al. (2019); Newton K, et al. (2014); Duprez L, et al. (2011)). All mice (8 weeks old) used in this experiment were on C57BL/6 background and age-, sex-, and weight-matched. Recombinant carrier-free murine TNF-α was obtained from R&D Systems (Bio-Techne, Wiesbaden, Germany). Each mouse received a single bolus of 1 mg murine TNF-α/kg body weight in a total volume of […] phosphate-buffered saline, via the tail vein. In this setting, mice received 15 min before TNF-α application a single intraperitoneal (i.p.) injection (total volume per mouse was 200 μl) of either 2.5% DMSO in PBS (vehicle) or 10 mg primidone/kg body weight (as indicated). Thereafter, the animals (n=16 per group) were placed under permanent observation and survival was checked every 15 min. Survival is depicted in a Kaplan-Meier plot (*** p<0.001).

L929 cells [2] = experiment: Stimulation assay: TNF-α + 5Z-7 (± zVAD) induced RIPK1-dependent apoptosis/necroptosis; format: cell-based, murine; settings: primidone 1 mM, Nec-1s 20 μM
Description: Murine fibroblasts (L929 cells) were stimulated for 24 h at 37° C. in the presence of (a) vehicle, (b) 10 ng/ml tumor necrosis factor alpha (TNF-α), (c) 1 μM 5Z-7-oxozeaenol (5Z-7), (d) a combination of 10 ng/ml TNF-α and 1 μM 5Z-7, (e) a combination of 10 ng/ml TNF-α, 1 μM 5Z-7, and 20 μM necrostatin-1 (Nec-1s), (f) a combination of 10 ng/ml TNF-α, 1 μM 5Z-7, and 1 mM primidone (primidone is referred to in the Figures as compound A), (g) a combination of 10 ng/ml TNF-α, 1 μM 5Z-7, and 25 μM zVAD, (h) a combination of 10 ng/ml TNF-α, 1 μM 5Z-7, and 20 μM Nec-1s, and (i) a combination of 10 ng/ml TNF-α, 1 μM 5Z-7, 25 μM zVAD, and 1 mM primidone. TNF-α is a pro-inflammatory cytokine which triggers cell survival (canonical pathway) or cell death, depending on the cellular context. 5Z-7-oxozeaenol (5Z-7) is an inhibitor of transforming growth factor activated kinase 1 (TAK1). TAK1 is an intermediate in the signaling pathway of the TNF-receptor type 1 (TNFR1), and it is known that TAK1 is essential for the prevention of TNF-induced cell death. Cells in which TAK1 is disrupted or otherwise blocked are hypersensitive to TNF-α-induced cell death due to diminished prosurvival pathways including NF-κB and reduced antioxidant enzymes which results in activation of caspases. The compound zVAD is a pan-caspase inhibitor.

L929 cells [3] = experiment: Time profile of blocking TZ-induced necroptosis, FACS (7-AAD/Annexin V); format: cell-based, murine; settings: L929, 10 ng/ml TNF-α + 25 μM zVAD (TZ), 24 h; primidone 1 mM, Nec-1s 25 μM; one representative experiment of three
Description: The time profile of primidone for blocking cell death was compared to the one of Nec-1s. For this purpose, murine L929 cells were stimulated at 37° C. for 24 h with 10 ng/ml TNF-α+25 μM zVAD (TZ) in the presence of 1 mM primidone and 25 μM Nec-1s, respectively, for the indicated durations. Nec-1s and primidone were added 30 min before, 60 min and 180 min after the induction of RIPK1-mediated necroptosis, respectively. Cell death was quantified by FACS analysis using 7-amino-actinomycin D and phosphatidylserine accessibility (Annexin V staining) as markers.

RIPK1 = target: T1, RIPK1 (Homo sapiens, UniProt Q13546); experiment: KINOMEscan profiling kinase assay
T1 sequence (Q13546 1-671): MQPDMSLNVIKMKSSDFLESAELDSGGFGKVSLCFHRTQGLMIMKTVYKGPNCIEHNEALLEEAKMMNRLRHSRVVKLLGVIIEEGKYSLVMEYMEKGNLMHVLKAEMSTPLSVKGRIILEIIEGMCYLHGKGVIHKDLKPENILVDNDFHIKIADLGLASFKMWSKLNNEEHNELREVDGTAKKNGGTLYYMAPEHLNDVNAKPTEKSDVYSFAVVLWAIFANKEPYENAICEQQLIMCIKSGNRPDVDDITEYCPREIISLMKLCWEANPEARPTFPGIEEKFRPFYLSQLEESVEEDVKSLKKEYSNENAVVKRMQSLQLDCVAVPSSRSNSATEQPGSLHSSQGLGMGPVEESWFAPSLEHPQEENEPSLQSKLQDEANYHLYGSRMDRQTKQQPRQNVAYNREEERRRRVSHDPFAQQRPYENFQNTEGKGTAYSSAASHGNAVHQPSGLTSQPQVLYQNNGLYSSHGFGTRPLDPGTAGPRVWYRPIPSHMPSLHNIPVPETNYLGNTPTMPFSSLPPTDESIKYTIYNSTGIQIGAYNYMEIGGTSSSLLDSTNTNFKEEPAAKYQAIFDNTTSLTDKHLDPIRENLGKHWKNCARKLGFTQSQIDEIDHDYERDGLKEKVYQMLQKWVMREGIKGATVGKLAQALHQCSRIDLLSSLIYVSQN
Description: To clarify, a KINOMEscan™ profiling kinase assay was performed. […] Dissociation constants (Kd) for test compound-kinase interactions are calculated by measuring the amount of kinase captured on the solid support as a function of the test compound concentration.

Structure (SMILES): CCC1(c2ccccc2)C(=O)NCNC1=O [primidone, 5-Ethyl-5-phenyl-1,3-diazinane-4,6-dione]
- TNF-α-induced formation of complex I (RIPK1 binding to TNFR1) (TNF-α-induced complex I): not influenced
- TNF-α-induced hypothermia [1]: significantly improves
- Survival after TNF-α injection ([1]; vs vehicle, p<0.001): significantly enhanced survival
- Block of RIPK1-dependent necroptosis (L929 cells [2]; L929, 10 ng/ml TNF-α + 1 μM 5Z-7 + 25 μM zVAD, 24 h): able to block
- Block of RIPK1-dependent apoptosis (RDA) (L929 cells [2]; L929, 10 ng/ml TNF-α + 1 μM 5Z-7, 24 h, zVAD 25 μM): could also be blocked
- Cells still alive, compound added 60 min after induction of cell death (L929 cells [3]): 92.7%
- Cells still alive, compound added 3 hours after induction of cell death (L929 cells [3]): 58.6%
- Binding to RIPK1 kinase domain (prevention of kinase binding to immobilized ligand) (RIPK1): does not inhibit RIPK1 by binding directly to its kinase domain
